Values of other authors in patent US20120015026A1, “PHARMACEUTICAL COMPOSITION CONTAINING A DRUG AND SIRNA” (priority 2009, published 2012).

What was measured:
[1] = organic solvents such as ethanol, ethylacetate, dichloromethane

## C/C(=C\c1csc(C)n1)[C@@H]1C[C@@H]2O[C@]2(C)CCC[C@H](C)[C@H](O)[C@@H](C)C(=O)C(C)(C)[C@@H](O)CC(=O)O1 [EPO906, epothilone B]
[1]
  solubility in organic solvents: highly soluble
other
  solubility in water: < 0.1 µg/mL
